Assay results reported in publication PMC8759724 (Journal of Enzyme Inhibition and Medicinal Chemistry, 2021).

How the values were obtained:
WT PfDHFR [1] = target: WT PfDHFR (Plasmodium falciparum, UniProt P13922, N108S/R59C); experiment: Differential scanning fluorimetry; type: binding; conditions: DSF, apo PfDHFR (no NADPH added with the ligand)
WT PfDHFR [2] = target: WT PfDHFR (Plasmodium falciparum, UniProt P13922); experiment: PfDHFR activity assay; type: biochemical

Molecule | ΔTm (melting temperature variation) (WT PfDHFR [1]) | IC50 (WT PfDHFR [2]) [µM]
Nc1nc(=O)c2c([nH]1)NCC(CNc1ccc(C(=O)N[C@@H](CCC(=O)O)C(=O)O)cc1)=N2 [DHF, dihydrofolate] | minor melting temperature variations | –
NC(=O)Nc1cccc(C(F)(F)F)c1 [fragment 148, [3-(trifluoromethyl)phenyl]urea] | – | 464
tetrahydrofolate [THF] | minor melting temperature variations | –
NC(=O)C1=CN([C@@H]2O[C@H](COP(=O)(O)OP(=O)(O)OC[C@H]3O[C@@H](n4cnc5c(N)ncnc54)[C@H](OP(=O)(O)O)[C@@H]3O)[C@@H](O)[C@H]2O)C=CC1 [NADPH] | +4 °C | –
